Assay results as given in patent publication US20080221205A1, “FURAN DERIVATIVES FOR PREVENTING AND CURING OSTEOPOROSIS AND PHARMACEUTICAL COMPOSITIONS CONTAINING THE SAME” (priority 2002, published 2008).

System: osteoclast formation
Assay: Inhibition rate of furan derivatives versus osteoclast formation (TRAP staining)
Type: cell-based, mice
Conditions: TRAP-positive multinucleated cells, untreated control set as 100%
Method: First, bone marrow cells were isolated, as follow. After sacrificing 7-9 week female mice by cervical dislocation, femur and tibia were excised aseptically while removing attached soft tissues. After cutting both ends of long bones, 1 ml of an enzyme solution, containing 0.1% collagenase (Gibco), 0.05% trypsin and 0.5 mM EDTA (Gibco), was injected to the bone marrow cavity at one end using a syringe with a 26-guage needle, and bone marrow was then collected. After shaking the recovered bone marrow for 30 min, bone marrow cells were collected, and cultured in α-minimum essential medium (α-MEM) supplemented with 10% FBS for 24 hrs. Then, non-adherent cells were collected, which are osteoclast pregenitors, aliquotted onto culture plates at a density of 2×10^5 cells per well, and cultured for 8 days in α-MEM supplemented with 20 ng/ml of macrophage-colony stimulating factor (M-CSF, Peprotech, USA) and 30 ng/ml RANKL (Peprotech, USA). During the 8 days of culturing, the cells were treated with the Compound 1. Thereafter, osteoclast formation was investigated by fixing the cultured cells and then carrying out TRAP staining, as described in the following Experimental Example 2.2. In addition, resorption activity of osteoclasts was investigated by measuring the absorption area after removing osteoclasts in cultures in calcium phosphate-coated plates, as described in Experimental Example 2.3, below.
After cell culture, the adherent cells were washed with PBS, and TRAP staining was performed, as follows. After being fixed with citrate-acetate-formaldehyde for 5 min, the cells were incubated for 1 hr in acetate buffer (prewarmed at 37° C., pH 5.0) containing naphthol AS-BI phosphate, fast Garnet GBC and 7 mM tartrate buffer (pH 5.0). TRAP-positive multinucleated cells having 3 or more nuclei were considered as osteoclasts.
Osteoclast pregenitor cells were isolated, and their differentiation to mature osteoclasts was induced, according to the same method as in the Experimental Example 2-1, while treated with each of the furan derivatives of the present invention. According to the same method as in the Experimental Example 2-2, TRAP staining performed, and TRAP-positive multinucleated cells were counted. An inhibition rate of each furan derivative against osteoclast formation was expressed as percentage, wherein the number of stained cells in a control not treated the furan derivative was arbitrarily set as 100% (Tables 14 to 16).

Structure (SMILES) | Inhibition rate against osteoclast formation, % (0.1 μM) [%] | Inhibition rate against osteoclast formation, % (1 μM) [%] | Inhibition rate against osteoclast formation, % (10 μM) [%]
COc1ccc(C)cc1NC(=O)c1ccc(COc2cccc(Cl)c2)o1 [Compound 171] | 0 | 0 | 0.42
O=C(Oc1ccccc1)c1ccc(COc2ccccc2Cl)o1 [Compound 98] | 0 | 0 | 
O=Cc1ccc(COC(=O)Cc2ccccc2)o1 [Compound 32] | 0 |  | 50
COC(=O)c1ccc(COc2ccccc2[N+](=O)[O-])o1 [Compound 67] | 0 | 0 | 
COC(=O)c1ccccc1NC(=O)c1ccc(COc2ccc(C)c(C)c2)o1 [Compound 180] | 0 | 0 | 
Cc1ccc(F)c(NC(=O)c2ccc(COc3ccc(C)cc3[N+](=O)[O-])o2)c1 [Compound 155] | 0 | 0 | 
COC(=O)c1ccc(COc2ccccc2Cl)o1 [Compound 61] | 0 | 0 | 
Cc1cc(OCc2ccc(C(=O)N3CCOCC3)o2)ccc1Cl [Compound 132] | 0 | 0 | 
O=Cc1ccc(COC(=O)Cc2c(F)cccc2Cl)o1 [Compound 34] | 0 |  | 
CC(C)(C)NC(=O)c1ccc(COCC(F)(F)F)o1 [Compound 127] | 0 | 0 | 
CCCc1ccc(OCc2ccc(C(=O)O)o2)cc1 [Compound 100] | 0 | 0 | 
O=C(O)c1ccc(COc2cc(Cl)ccc2Cl)o1 [Compound 109] | 0 | 0 | 
COc1ccccc1NC(=O)c1ccc(COc2ccc(C(C)(C)C)cc2)o1 [Compound 189] | 0 | 0 | 
O=Cc1ccc(COC(=O)Cc2cccc(Cl)c2)o1 [Compound 35] | 0 |  | 
CCCc1ccc(OCc2ccc(C(=O)Nc3ccc(F)cc3F)o2)c(OC)c1 [Compound 176] | 0 | 0 | 
CC(C)(C)c1ccc(OCc2ccc(C(=O)NC3CCCCC3)o2)cc1 [Compound 134] | 0 | 0 | 
O=Cc1ccc(COC(=O)Cc2ccc3ccccc3c2)o1 [Compound 38] | 0 |  | 20
O=C(O)c1ccc(CSCc2ccccc2)o1 [Compound 120] | 0 | 0 | 
CCOc1ccccc1NC(=O)c1ccc(COc2ccc(Cl)cc2[N+](=O)[O-])o1 [Compound 144] | 0 |  | 
COc1ccccc1OCc1ccc(C(=O)Nc2ccccc2Cl)o1 [Compound 174] | 0 | 0 | 
COc1cc([N+](=O)[O-])ccc1NC(=O)c1ccc(COc2ccc(Cl)cc2)o1 [Compound 182] | 0 | 0 | 
O=C(O)c1ccc(COc2cccc(Cl)c2)o1 [Compound 112] | 0 | 0 | 
CCc1cccc(NC(=O)c2ccc(COc3ccc(F)cc3)o2)c1 [Compound 163] | 0 | 0 | 
O=C(Nc1ccccc1F)c1ccc(COc2ccc(Cl)cc2)o1 [Compound 178] | 0 | 0 | 

Structure (SMILES) | Inhibition rate against osteoclast formation, % (0.1 μM) [%] | Inhibition rate against osteoclast formation, % (1 μM) [%] | Inhibition rate against osteoclast formation, % (10 μM) [%]
O=C(Nc1ccccc1)c1ccc(COc2ccc3ccccc3c2)o1 [Compound 137] | 0 | 0 | 
O=C(Nc1cccc([N+](=O)[O-])c1)c1ccc(COc2ccc(I)cc2)o1 [Compound 191] | 0 | 0 | 
CCCc1ccc(OCc2ccc(C(=O)Nc3cc(Cl)ccc3Cl)o2)cc1 [Compound 170] | 0 | 0 | 
CCCc1ccc(OCc2ccc(C(=O)Nc3ccc(OC)c(OC)c3)o2)cc1 [Compound 164] | 0 | 0 | 
O=C(Nc1ccc(Br)cc1)c1ccc(COc2ccc(I)cc2)o1 [Compound 146] | 0 | 0 | 
COc1ccccc1OCc1ccc(C(=O)Nc2ccc(C)c(C)c2)o1 [Compound 175] | 0 | 0 | 
COc1ccccc1NC(=O)c1ccc(COc2ccccc2OC)o1 [Compound 166] | 0 | 0 | 
COC(=O)c1ccc(CNc2ccccc2)o1 [Compound 89] | 0 | 0 | 
COC(=O)c1ccc(C)c(NC(=O)c2ccc(COc3ccc(I)cc3)o2)c1 [Compound 152] |  | 0.08 | 
O=C(O)c1ccc(COc2ccc(F)cc2)o1 [Compound 102] | 0 | 0 | 
O=Cc1ccc(COC(=O)Nc2ccc(Cl)c(Cl)c2)o1 [Compound 54] | 0 | 0 | 10
COC(=O)c1ccc(CNC(C)(C)C)o1 [Compound 91] | 0 | 0 | 
CC(C)c1ccc(OCc2ccc(C(=O)O)o2)cc1 [Compound 114] | 0 | 0 | 4.2
COc1ccc(F)c(CC(=O)OCc2ccc(C=O)o2)c1 [Compound 42] | 0 |  | 
Cc1ccc(F)c(NC(=O)c2ccc(COc3ccccc3[N+](=O)[O-])o2)c1 [Compound 158] | 0 | 0 | 
COC(=O)c1ccccc1NC(=O)c1ccc(COc2ccc(Cl)cc2Cl)o1 [Compound 167] | 0 |  | 
COc1ccc(NC(=O)c2ccc(COc3ccc(F)cc3)o2)c([N+](=O)[O-])c1 [Compound 149] | 0 |  | 
COC(=O)c1ccc(COc2ccc(Cl)cc2Cl)o1 [Compound 60] | 0 | 0 | 
O=Cc1ccc(COC(=O)Nc2ccc(Br)cc2)o1 [Compound 50] | 0 | 10 | 0
O=C(O)c1ccc(COc2ccc(Br)cc2)o1 [Compound 103] | 0 | 0 | 
COC(=O)c1ccc(CN(C)C)o1 [Compound 85] | 0 | 0 | 
CCN(CC)C(=O)c1ccc(COc2ccc(Cl)c(C)c2)o1 [Compound 123] | 0 | 6.9 | 100
O=Cc1ccc(COC(=O)Cc2ccc(F)cc2F)o1 [Compound 39] | 0 | 10 | 
